target: Human Factor D (Homo sapiens (Human), UniProt P00746); experiment: Human Factor D Assay; format: biochemical; settings: Table 5; Human Factor D 80 nM, substrate Z-L-Lys-SBzl; read-out: IC50 (Stars)
Outline: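 Serum-purified human factor D (80 nM final) preincubated with compound 5 min at room temperature in 50 mM Tris, 1 M NaCl, pH 7.5. Z-L-Lys-SBzl and DTNB added at 100 μM each; A405 followed every 30 s for 30 min. IC50 by nonlinear regression of rates.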

Chain of Human Factor D (P00746 26-253): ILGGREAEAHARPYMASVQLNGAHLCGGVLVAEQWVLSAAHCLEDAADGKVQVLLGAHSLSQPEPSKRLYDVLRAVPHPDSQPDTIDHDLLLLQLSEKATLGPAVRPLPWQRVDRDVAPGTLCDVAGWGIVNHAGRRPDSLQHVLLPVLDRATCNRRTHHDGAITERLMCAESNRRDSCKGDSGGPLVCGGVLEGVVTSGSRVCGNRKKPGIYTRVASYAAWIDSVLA

| SMILES | IC50 |
| --- | --- |
| CC(=O)c1nn(CC(=O)N2[C@H](C(=O)Nc3nc(Br)ccc3C)C[C@@]3(C)C[C@@H]23)c2ccc(NC(=O)C3CCCCC3(F)F)cc12 (stereo partly drawn) [Compound T-9, (1R,3S,5R)-2-(2-(3-acetyl-5-(2,2-difluorocyclohexane-1-carboxamido)-1H-indazol-1-yl)acetyl)-N-(6-bromo-3-methylpyridin-2-yl)-5-methyl-2-azabicyclo[3.10]hexane-3-carboxamide] | < 1000 nM |
| CC(=O)c1nn(CC(=O)N2[C@H](C(=O)Nc3nc(Br)ccc3C)C[C@@]3(C)C[C@@H]23)c2c(S(C)=N)cccc12 (stereo partly drawn) [Compound T-40, (1R,3S,5R)-2-(2-(3-acetyl-7-(S-methylsulfinimidoyl)-1H-indazol-1-yl)acetyl)-N-(6-bromo-3-methylpyridin-2-yl)-5-methyl-2-azabicyclo[3.1.0]hexane-3-carboxamide] | < 1000 nM |
| CCOC(=O)/C=C/c1cn(CC(=O)N2C[C@H](F)C[C@H]2C(=O)Nc2cccc(Br)n2)nc1C(N)=O [Compound T-22, (E)-ethyl 3-(1-(2-((2S,4R)-2-((6-bromopyridin-2-yl)carbamoyl)-4-fluoropyrrolidin-1-yl)-2-oxoethyl)-3-carbamoyl-1H-pyrazol-4-yl)acrylate] | 1000 to 10000 nM |
| CC(=O)c1nn(CC(=O)N2[C@H](C(=O)Nc3nc(Br)ccc3C)C[C@@]3(CNC(=O)C4CCCC4(F)F)C[C@@H]23)c2c(C)cccc12 (stereo partly drawn) [Compound T-43, (1R,3S,5R)-2-(2-(3-acetyl-7-methyl-1H-indazol-1-yl)acetyl)-N-(6-bromo-3-methylpyridin-2-yl)-5-((2,2-difluorocyclopentane-1-carboxamido)methyl)-2-azabicyclo[3.1.0]hexane-3-carboxamide] | < 1000 nM |
| CC(=O)c1cc(C(=O)NCc2cnc(C)nc2)n(CC(=O)N2C[C@H](F)C[C@H]2C(=O)Nc2cccc(Br)n2)c1 [Compound T-19, 4-acetyl-1-(2-((2S,4R)-2-((6-bromopyridin-2-yl)carbamoyl)-4-fluoropyrrolidin-1-yl)-2-oxoethyl)-N-((2-methylpyrimidin-5-yl)methyl)-1H-pyrrole-2-carboxamide] | < 1000 nM |
| CC(=O)c1nn(CC(=O)N2[C@H](C(=O)Nc3nc(Br)ccc3C)C[C@@]3(C)C[C@@H]23)c2c(S(C)(=N)=O)cccc12 (stereo partly drawn) [Compound T-41, (1R,3S,5R)-2-(2-(3-acetyl-7-(S-methylsulfonimidoyl)-1H-indazol-1-yl)acetyl)-N-(6-bromo-3-methylpyridin-2-yl)-5-methyl-2-azabicyclo[3.1.0]hexane-3-carboxamide] | < 1000 nM |
| CC(=O)c1nn(CC(=O)N2C[C@H]3C[C@H]3[C@H]2C(=O)Nc2nc(Br)ccc2C)c2cc(C)sc12 [Compound T-2, (1R,2S,5S)-3-(2-(3-acetyl-5-methyl-1H-thieno[3,2-c]pyrazol-1-yl)acetyl)-N-(6-bromo-3-methylpyridin-2-yl)-3-azabicyclo[3.10]hexane-2-carboxamide] | < 1000 nM |
| CC(=O)c1nn(CC(=O)N2C[C@H](F)C[C@H]2C(=O)Nc2cccc(Br)n2)c2cc(S(C)(=O)=NC#N)ccc12 (stereo partly drawn) [Compound T-11] | < 1000 nM |
| CC(=O)c1cc(C(N)=O)n(CC(=O)N2C[C@H](F)C[C@H]2C(=O)Nc2cccc(Br)n2)n1 [Compound T-23, 3-acetyl-1-(2-((2S,4R)-2-((6-bromopyridin-2-yl)carbamoyl)-4-fluoropyrrolidin-1-yl)-2-oxoethyl)-1H-pyrazole-5-carboxamide] | < 1000 nM |

same assay, conditions: Table 6; Human Factor D 80 nM, substrate Z-L-Lys-SBzl; read-out: IC5 (Stars)

| SMILES | IC50 |
| --- | --- |
| CC(=O)c1nn(CC(=O)N2C[C@H](F)C[C@H]2C(=O)Nc2cccc(Br)n2)c2ccc(OCCS(=O)(=O)CC3(C)COC3)cc12 [Compound T-54, (2S,4R)-1-(2-(3-acetyl-5-(2-(((3-methyloxetan-3-yl)methyl)sulfonyl)ethoxy)-1H-indazol-1-yl)acetyl)-N-(6-bromopyridin-2-yl)-4-fluoro-pyrrolidine-2-carboxamide] | < 1000 nM |

same assay, conditions: Table 7; read-out: IC5 (Stars)

| SMILES | IC50 |
| --- | --- |
| CC(=O)c1nn(CC(=O)N2[C@H](C(=O)Nc3nc(Br)ccc3C)C[C@@]3(C)C[C@@H]23)c2c(C)cc(NC(=O)C3CCCC3(F)F)cc12 (stereo partly drawn) [Compound T-66, (1R,3S,5R)-2-(2-(3-acetyl-5-(2,2-difluorocyclopentane-1-carboxamido)-7-methyl-1H-indazol-1-yl)acetyl)-N-(6-bromo-3-methylpyridin-2-yl)-5-methyl-2-azabicyclo[3.1.0]hexane-3-carboxamide] | < 1000 nM |
| CC(=O)c1nn(CC(=O)N2[C@H](C(=O)NCc3cccc(Cl)c3F)C[C@@]3(C)C[C@@H]23)c2c(C)cc(NC(=O)N3CCCC(F)(F)C3)cc12 [Compound T-67, (1R,3S,5R)-2-(2-(3-acetyl-5-(3,3-difluoropiperidine-1-carboxamido)-7-methyl-1H-indazol-1-yl)acetyl)-N-(3-chloro-2-fluorobenzyl)-5-methyl-2-azabicyclo[3.l.0]hexane-3-carboxamide] | < 1000 nM |
| Cc1ccc(Br)nc1NC(=O)[C@@H]1C[C@@]2(C)C[C@H]2N1C(=O)Cc1cccc(-c2cnc(O)nc2)c1 [Compound T-96, (1R,3S,5R)-N-(6-bromo-3-methylpyridin-2-yl)-2-(2-(3-(2-hydroxypyrimidin-5-yl)phenyl)acetyl)-5-methyl-2-azabicyclo[3.1.0]hexane-3-carboxamide] | > 10000 nM |
| CC(=O)c1nn(CC(=O)N2C[C@H](F)C[C@H]2C(=O)Nc2nc(Br)ccc2C)c2cc(OCP(=O)(O)O)ccc12 [Compound T-130, (((3-acetyl-1-(2-((2S,4R)-2-((6-bromo-3-methylpyridin-2-yl)carbamoyl)-4-fluoropyrrolidin-1-yl)-2-oxoethyl)-1H-indazol-6-yl)oxy)methyl)phosphonic acid] | < 1000 nM |
| CC(=O)c1nn(CC(=O)N2C(C(=O)Nc3nc(Br)ccc3C)C[C@@]3(Cn4cc(C5CC5)nn4)C[C@@H]23)c2cnccc12 (stereo partly drawn) [Compound T-139, (1R,3S,5R)-2-(2-(3-acetyl-1H-pyrazolo[3,4-c]pyridin-1-yl)acetyl)-N-(6-bromo-3-methylpyridin-2-yl)-5-((4-cyclopropyl-1H-1,2,3-triazol-1-yl)methyl)-2-azabicyclo[3.1.0]hexane-3-carboxamide] | < 1000 nM |
| Cc1ccc(Br)nc1NC(=O)[C@@H]1C[C@@]2(C)C[C@H]2N1C(=O)Cn1nc(C(N)=O)c2cc(NC(=O)C3CCCC3(F)F)ccc21 (stereo partly drawn) [Compound T-65, 1-(2-((1R,3S,5R)-3-((6-bromo-3-methylpyridin-2-yl)carbamoyl)-5-methyl-2-azabicyclo[3.1.0]hexan-2-yl)-2-oxoethyl)-5-(2,2-difluorocyclopentane-1-carboxamido)-1H-indazole-3-carboxamide] | < 1000 nM |
| COc1ncc(-c2cc(CC(=O)N3C[C@H](F)C[C@H]3C(=O)Nc3cccc(-c4ccccc4Cl)c3F)cc(-c3cnc(OC)nc3)c2)cn1 [Compound T-110, (2S,4R)-1-(2-(3,5-bis(2-methoxypyrimidin-5-yl)phenyl)acetyl)-N-(2′-chloro-2-fluoro-[1,1′-biphenyl]-3-yl)-4-fluoropyrrolidine-2-carboxamide] | > 10000 nM |

The remaining lines, values ahead:

| IC50 | SMILES |
| --- | --- |
| 1000 to 10000 nM | Cc1ccc(Br)nc1NC(=O)[C@@H]1C[C@@]2(C)C[C@H]2N1C(=O)Cc1ccc2[nH]nc(C(=O)O)c2c1 [Compound T-158, 5-(2-((1R,3S,5R)-3-((6-bromo-3-methylpyridin-2-yl)carbamoyl)-5-methyl-2-azabicyclo[3.1.0]hexan-2-yl)-2-oxoethyl)-1H-indazole-3-carboxylic acid] |
| > 10000 nM | Cc1ncc(-c2cc(CC(=O)N3[C@H](C(=O)Nc4nc(Br)ccc4C)C[C@@]4(C)C[C@@H]34)cc(-c3cnc(O)nc3)c2)cn1 [Compound T-117, (1R,3S,5R)-N-(6-bromo-3-methylpyridin-2-yl)-2-(2-(3-(2-hydroxypyrimidin-5-yl)-5-(2-methylpyrimidin-5-yl)phenyl)acetyl)-5-methyl-2-azabicyclo[3.1.0]hexane-3-carboxamide] |
| > 10000 nM | Cc1ccc(Br)nc1NC(=O)[C@@H]1C[C@@]2(C)C[C@H]2N1C(=O)Cn1nc(NCCC(=O)O)c2ccncc21 [Compound T-89, 3-((1-(2-((1R,3S,5R)-3-((6-bromo-3-methylpyridin-2-yl)carbamoyl)-5-methyl-2-azabicyclo[3.1.0]hexan-2-yl)-2-oxoethyl)-1H-pyrazolo[3,4-c]pyridin-3-yl)amino)propanoic acid] |
| 1000 to 10000 nM | Cc1ccc(Br)nc1NC(=O)[C@@H]1C[C@@]2(C)C[C@H]2N1C(=O)Cc1ccc2[nH]nc(Cl)c2c1 [Compound T-155, (1R,3S,5R)-N-(6-bromo-3-methylpyridin-2-yl)-2-(2-(3-chloro-1H-indazol-5-yl)acetyl)-5-methyl-2-azabicyclo[3.1.0]hexane-3-carboxamide] |
| 1000 to 10000 nM | Cc1ncc(-c2cc(C#N)cc(CC(=O)N3[C@H](C(=O)Nc4nc(Br)ccc4C)C[C@@]4(C)C[C@@H]34)c2)cn1 [Compound T-171, (1R,3S,5R)-N-(6-bromo-3-methylpyridin-2-yl)-2-(2-(3-cyano-5-(2-methylpyrimidin-5-yl)phenyl)acetyl)-5-methyl-2-azabicyclo[3.1.0]hexane-3-carboxamide] |
| < 1000 nM | CC(=O)c1cc(CC(=O)N2[C@H](C(=O)Nc3nc(Br)ccc3C)C[C@@]3(C)C[C@@H]23)cc(-c2cnc(C)nc2)c1 [Compound T-106, (1R,3S,5R)-2-(2-(3-acetyl-5-(2-methylpyrimidin-5-yl)phenyl)acetyl)-N-(6-bromo-3-methylpyridin-2-yl)-5-methyl-2-azabicyclo[3.1.0]hexane-3-carboxamide] |
| 1000 to 10000 nM | COc1cc(CC(=O)N2[C@H](C(=O)Nc3nc(Br)ccc3C)C[C@@]3(C)C[C@@H]23)cc(-c2cnc(OC)nc2)c1 [Compound T-97, (1R,3S,5R)-N-(6-bromo-3-methylpyridin-2-yl)-2-(2-(3-methoxy-5-(2-methoxypyrimidin-5-yl)phenyl)acetyl)-5-methyl-2-azabicyclo[3.1.0]hexane-3-carboxamide] |
